# “And” between values parts separate entries of the source, which are not always exact repeats. Equal entries are not always repeated. Where two headings read alike, the source gives them in different places.
# Experiments:
# HSA [1] = test system: HSA
# AGP [2] = test: Literature AGP binding by equilibrium dialysis
# AGP [3] = details: cited from earlier work
# [4] = set-up: method as in PMID 11472245; details: calibration set of compounds, predefined values; cited from earlier work
# HSA [5] = details: cited from earlier work; for % HSA: calibration drugs, equilibrium dialysis literature % binding
# [6] = calibration compounds, literature value, no reference given; cited from earlier work
# [7] = target: human serum albumin (HSA) (Homo sapiens, UniProt P02768); test: Albumin binding by biomimetic HPLC on Chiralpak HSA column; details: for calculated % binding, HSA 5 % IPA: isocratic 5 % IPA, partial calibration set; for calculated % binding, HSA 15 % IPA: isocratic 15 % IPA; for fraction unbound: human, Chiralpak HSA HPLC column (immobilised human serum albumin), pH 7.4; for % HSA bound: standard 6 min IPA gradient up to 35 %, pH 7.4, racemate; for log k (HSA): standard 6 min IPA gradient, racemate
# Procedure: (§1) The protein binding measurements were carried out on Chiralpak HSA and Chiralpak AGP columns with the dimensions of 3 x 50 mm with 5 um particle size stationary phase (Chiril Technologies Europe, France). The mobile phase was 50 mM ammonium acetate adjusted to pH 7.4 with a flow rate of 1.2 mL/min. […] The cycle time was 6 min with an additional 1 min re-equilibration time.
# (§2) The cycle time was 8 min plus an additional 1 min re-equilibration time.
# [8] = test system: α-1-acid-glycoprotein (AGP); test: Glycoprotein binding by biomimetic HPLC on Chiralpak AGP column; details: for calculated % binding, AGP 5 % IPA: isocratic 5 % IPA; for calculated % binding, AGP 5 % IPA / calculated % binding, AGP 8 % IPA / calculated % binding, AGP 15 % IPA: 1.2 mL/min; for calculated % binding, AGP 8 % IPA: isocratic 8 % IPA; for calculated % binding, AGP 15 % IPA: isocratic 15 % IPA; for % AGP bound: standard 6 min IPA gradient up to 35 %, pH 7.4, racemate
# Procedure: as §1, §2
# [9] = cited from earlier work
# [10] = Estimated volume of distribution, unbound volume of distribution and drug efficiency from biomimetic HPLC data; details: standard 6 min protocol data
# Text: (§3) Thus, the regression coefficients in linear regression analysis are meaningful and reflect to the physiological proportion of the albumin and phospholipids in the body. […] They are based on the calibrated retention times obtained on C-18, IAM, Chiralpak HSA and Chiralpak AGP columns.
# [11] = Human plasma protein binding by rapid equilibrium dialysis (RED); type: in vitro ADME; details: 100 % pooled human plasma, pH 7.4, 37 °C
# Procedure: The test compounds were prepared in 100 % pooled human plasma. The measurement was performed using equilibrium dialysis with the two compartments separated by a semi-permeable membrane. The plasma solution was added to one side of the membrane while buffer (pH 7.4) was added to the other side. The system was allowed to reach equilibrium at 37 °C. Compound concentration on both sides of the membrane was measured by LC-MS/MS, and the fraction of unbound compound calculated. Calibration standards were prepared in plasma and buffer. Test compound incubations were performed in triplicate. A control compound was included in each experiment. The solutions for each batch of compounds were combined into two groups (protein-free and protein-containing). Cassette analysed by LC-MS/MS using two sets of calibration standards for protein-free solutions (7 points) and protein-containing solutions (7 points). The experiments were carried out at Cyprotex Discovery Ltd (UK) and repeated at Sygnature Discovery Ltd (UK) laboratories using their generic LC/MS method. The unbound fraction (fu) is calculated from the concentration of the test compound in the protein-containing side Cp and the protein-free side Cf based on the formula: […]
# [12] = Estimated brain tissue binding and brain to blood ratio from biomimetic HPLC data (model equations); details: standard 6 min protocol data; for %BTB: brain tissue binding; for Kp at 0.1 h: read-out: Brain to plasma
# Text: as §3
# [13] = Estimated lung tissue binding from biomimetic HPLC data (model equation); details: standard 6 min protocol data
# Text: as §3
# [14] = Phospholipid binding at pH 7.4 on Immobilized Artificial Membrane (IAM) HPLC column; type: physicochemical; details: pH 7.4, standard 6 min protocol
# Procedure: The phospholipid-binding was measured using an IAM PC.DD2 column with dimensions of 100 x 4.6 mm (Regis Technologies Inc., Morton Grove, IL, USA). The gradient retention times of the compounds were measured using a 50 mM ammonium acetate starting mobile phase with the pH adjusted to 7.4. The mobile phase flow rate was 1.5 mL/min. […] The cycle time was 6 min plus an additional 1 min equilibration time was applied while the injector prepared for the next injection. The gradient retention times were calibrated with the acetophenone homologues for which the CHI IAM values have been established using isocratic measurements [26]. The Chromatographic Hydrophobicity Index on the IAM column [CHI(IAM)] approximates to the acetonitrile concentration in the mobile phase when the compound elutes. CHI(IAM) values above 45 indicate strong phospholipid binding. Repeating the retention time measurements provided the error only in the third digit of the minute (±0.005).
# [15] = cited from earlier work; remark: listed apart in the source
# [16] = both in animals and in human; cited from earlier work
# [17] = Estimated total plasma protein binding from biomimetic HPLC data (model equation); details: from % HSA, % AGP and lipophilicity, standard 6 min protocol; for fraction unbound: human, read-out: Estimated % plasma protein binding (PPB) (converted)
# Text: as §3
# [18] = Estimated cell partition coefficient from IAM binding (model equation); details: standard 6 min protocol data
# Text: as §3
# [19] = Chromatographic Hydrophobicity Index (CHI) lipophilicity at three pHs, C-18 gradient HPLC; type: physicochemical
# Procedure: Gemini NX C-18(2) 5 um columns with dimensions of 3 x 50 mm (Phenomenex Ltd. Macclesfield, UK) were used for the determination of the Chromatographic Hydrophobicity Index (CHI) and the CHIlogD values. […] An acetonitrile linear gradient was used from 0 to 100 %. The acetonitrile concentration reached 100 % in 3.5 min. The 100 % acetonitrile mobile phase was maintained for an additional 1 min before it was returned to 0 % at 4.7 min. The cycle time of the gradient run was 6 min, with an additional equilibration time of 1 min before the next injection. The error in the retention time measurements is ±0.005 min in general after repeated injections.
# [20] = Phospholipidotic potential (CAD-likeness) from CHI values; details: CHI (IAM) + (CHI at pH 10.5 – CHI at pH 7.4)
# [21] = calibration drugs, equilibrium dialysis literature % binding
# human serum albumin (HSA), sequence (P02768 25-609): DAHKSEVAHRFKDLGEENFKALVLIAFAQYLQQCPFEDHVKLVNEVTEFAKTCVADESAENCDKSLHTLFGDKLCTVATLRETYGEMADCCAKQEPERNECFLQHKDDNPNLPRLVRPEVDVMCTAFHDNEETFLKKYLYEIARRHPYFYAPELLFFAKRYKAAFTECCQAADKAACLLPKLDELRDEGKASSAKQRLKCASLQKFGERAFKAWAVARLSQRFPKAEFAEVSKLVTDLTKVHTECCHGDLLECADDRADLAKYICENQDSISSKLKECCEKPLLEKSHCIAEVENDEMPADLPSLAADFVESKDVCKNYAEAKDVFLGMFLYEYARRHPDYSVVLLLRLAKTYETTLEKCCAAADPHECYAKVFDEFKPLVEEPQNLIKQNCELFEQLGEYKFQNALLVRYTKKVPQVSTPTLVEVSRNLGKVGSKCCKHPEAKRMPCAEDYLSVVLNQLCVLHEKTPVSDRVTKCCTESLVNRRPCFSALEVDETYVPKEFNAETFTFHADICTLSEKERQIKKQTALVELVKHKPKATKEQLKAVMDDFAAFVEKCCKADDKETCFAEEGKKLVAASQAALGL
smiles,measurement,setting,value
COc1ccc2c(c1)c(CC(=O)O)c(C)n2C(=O)c1ccc(Cl)cc1 [Indomethacin],log k (HSA),HSA [1],1.8
same,log k (AGP),AGP [2],0.1
same,% AGP,AGP [3]; [21],56%
c1ccc2[nH]cnc2c1 [Benzimidazole],CHI at pH 2.6,[4],6.3
same,CHI at pH 7.4,[4],34.3
same,CHI at pH 10.5,[4],30.6
CC(=O)Nc1ccc(O)cc1 [Paracetamol],log k (HSA),HSA [1],-0.8
same,% HSA,HSA [5],14.0%
same,log k (AGP),AGP [2],-1.5
same,% AGP,AGP [3]; [21],3.2%
CNC(=C[N+](=O)[O-])NCCSCc1csc(CN(C)C)n1 [Nizatidine],log k (HSA),HSA [1],-0.6
same,% HSA,HSA [5],20.4%
same,log k (AGP),AGP [2],-0.2
same,% AGP,AGP [3]; [21],37.1%
CC(=O)CC(c1ccccc1)c1c(O)c2ccccc2oc1=O (stereo not drawn) [Warfarin],log k (HSA),HSA [1],1.5
same,log k (AGP),AGP [2],0.7
same,% AGP,AGP [3],83.2%
Cn1c(=O)c2nc(-c3ccccc3)[nH]c2n(C)c1=O [Phenyl theophylline],CHI at pH 2.6,[4],51.7
same,CHI at pH 7.4,[4],51.2
same,CHI at pH 10.5,[4],51.3
O=C(O)Cc1ccccc1Nc1c(Cl)cccc1Cl [Diclofenac],log k (AGP),AGP [2],0.2
NC(=O)N1c2ccccc2C=Cc2ccccc21 [Carbamazepine],log k (HSA),HSA [1],0.5
same,% HSA,HSA [5],75.0%
same,log k (AGP),AGP [2],0.3
same,% AGP,AGP [3]; [21],65%
COc1cc2c(c(OC)c1OC)-c1ccc(OC)c(=O)cc1[C@@H](NC(C)=O)CC2 [Colchicine],CHI at pH 2.6,[4],43.9
same,CHI at pH 7.4,[4],45.0
same,CHI at pH 10.5,[4],43.9
CCC(=O)c1ccccc1 [Propiophenone],CHI at pH 2.6,[4],77.4
same,CHI at pH 7.4,[4],77.4
same,CHI at pH 10.5,[4],77.4
CC(C)NCC(O)COc1cccc2ccccc12 (stereo not drawn) [Propranolol],% PPB (binds to plasma proteins),[6],propranolol (66 % PPB)
same,log k (HSA),HSA [1],0.3
same,% HSA,HSA [5],66.6%
same,"calculated % binding, HSA 5 % IPA",[7]; 1.2 mL/min,0.76 (54 %)
same,"calculated % binding, HSA 8 % IPA","[7]; isocratic 8 % IPA, 1.2 mL/min",0.73 (57.6 %)
same,"calculated % binding, HSA 15 % IPA",[7]; 1.2 mL/min,0.58 (66 %)
same,"calculated % binding, AGP 5 % IPA",[8],2.78 (85 %)
same,"calculated % binding, AGP 8 % IPA",[8],1.73 (68 %)
same,"calculated % binding, AGP 15 % IPA",[8],1.58 (67 %)
same,log k (AGP),AGP [2],0.8
same,% AGP,AGP [3]; [21],86%
COC(=O)C1=C(C)NC(C)=C(C(=O)OCCN(C)Cc2ccccc2)C1c1cccc([N+](=O)[O-])c1 (stereo not drawn) [Nicardipine],% PPB (binds to plasma proteins),[6],nicardipine (96 % PPB)
same,log k (HSA),HSA [1],1.2
same,"calculated % binding, HSA 5 % IPA",[7]; 1.2 mL/min,6 (96 %)
same,"calculated % binding, HSA 15 % IPA",[7]; 1.2 mL/min,1.05 (95 %)
same,"calculated % binding, AGP 5 % IPA",[8],>8 min (>98 %)
same,"calculated % binding, AGP 8 % IPA",[8],5.63 (98 %)
same,"calculated % binding, AGP 15 % IPA",[8],5.0 (96 %)
same,log k (AGP),AGP [2],0.8
same,% AGP,AGP [3]; [21],87%
CC(=O)c1ccccc1 [Acetophenone],CHI at pH 2.6,[4],64.1
same,CHI at pH 7.4,[4],65.1
same,CHI at pH 10.5,[4],64.1
CCCC(=O)c1ccccc1 [Butyrophenone],CHI at pH 2.6,[4],87.3
same,CHI at pH 7.4,[4],87.5
same,CHI at pH 10.5,[4],87.3
c1ccc2[nH]ccc2c1 [Indole],CHI at pH 2.6,[4],72.1
same,CHI at pH 7.4,[4],71.5
same,CHI at pH 10.5,[4],72.1
c1ccc(-c2nn[nH]n2)cc1 [Phenyl tetrazole],CHI at pH 2.6,[4],42.2
same,CHI at pH 7.4,[4],23.6
same,CHI at pH 10.5,[4],16.0
Cn1c(=O)c2[nH]cnc2n(C)c1=O [Theophylline],CHI at pH 2.6,[4],17.9
same,CHI at pH 7.4,[4],18.4
same,CHI at pH 10.5,[4],5.0
COc1cc(Cc2cnc(N)nc2N)cc(OC)c1OC [Trimethoprim],log k (HSA),HSA [1],-0.2
same,% HSA,HSA [5],37.6%
same,log k (AGP),AGP [2],-0.1
same,% AGP,AGP [3]; [21],46.2%
CCCCC(=O)c1ccccc1 [Valerophenone],CHI at pH 2.6,[4],96.4
same,CHI at pH 7.4,[4],96.20
same,CHI at pH 10.5,[4],96.36
"CCN(CC)CCCC(C)Nc1ccnc2cc(Cl)ccc12 (stereo not drawn) [CQ, Chloroquine]",Measured log I (ChemSpider),[9],2.68-4.63
same,Vd,[10],6.9 L/kg
same,Vdu,[10],56.1 L/kg
same,fraction unbound,[11],0.474
same,%BTB,[12],98.4%
same,Kp at 0.1 h,[12],3.4
same,% LTB,[13],96.3%
same,fraction unbound,[7],0.178
same,% HSA bound,[7],87% and 87.6%
same,log k (HSA),[7],0.8
same,log k (IAM),[14],2.6
same,% AGP bound,[8],88.8%
same,% AGP bound,AGP [3],48.4%
same,volume of distribution described in the literature,[15],over 100 L/kg
same,phospholipidosis,[16],causes phospholipidosis
same,Estimated % plasma protein binding (PPB),[17],94.8%
same,fraction unbound,[17],0.05
"CCN(CCO)CCCC(C)Nc1ccnc2cc(Cl)ccc12 (stereo not drawn) [HCQ, hydroxy-chloroquine]",Kpcell,[18],7.3
same,Vd,[10]; human,5.8 L/kg
same,Vd,[10],5.1 L/kg
same,Vdu,[10],38.8 L/kg
same,chromatographic logD,"[19]; Gemini NX C-18(2) HPLC column, pH 7.4, C-18 gradient HPLC, racemate not resolved, read-out: CHI log D (pH 7.4)",0.66
same,chromatographic logP,"[19]; from pH 10.5 mobile phase, read-out: CHI log P",2.13
same,fraction unbound,[11],0.693
same,%BTB,[12],97.6%
same,est log k BB,[12],0.8
same,Kp at 0.1 h,[12],2.8
same,% HSA bound,HSA [5]; equilibrium dialysis method,40%
same,% LTB,[13],93.9%
same,fraction unbound,[7],0.181
same,% HSA bound,[7],84.9%
same,log k (HSA),[7],0.7
same,log k (IAM),[14],2.5
same,Phospholipidotic potential (CAD-likeness),[20],73.6
same,% AGP bound,[8],89.0%
same,log k (AGP),"[8]; standard 6 min IPA gradient, racemate",0.9
same,% AGP bound,AGP [3]; equilibrium dialysis method,34%
same,volume of distribution described in the literature,[15],over 100 L/kg
same,Vd,[15]; healthy volunteers,above 4000 L/kg
same,Estimated % plasma protein binding (PPB),[17],93.4%
same,fraction unbound,[17],0.07
